Patent US9045563B2, “CXC chemokine receptor 4 (CXCR4) antagonistic polypeptide” (priority 2007, dated 2015)
Where two headings read alike, the source gives them in different places. Ends that are not written are not given here.

Legend:
[1] = tested on: X4 tropic HIV-1 NL4-3; conditions: TZM-bl cells; for IC50: read-out: IC50 ± SEM, X4 tropic HIV-1 NL4-3, two days post infection, synthetic peptides
Protocol: HIV inhibition test were performed by seeding 4000 P4-R5 MAGI cells (P. Charneau et al., J. Mol. Biol. 241: 651, 1994) in 100 μl of DMEM (10% FCS, 100 U/ml penicillin G, and 100 μg/ml streptomycin sulfate). P4-R5 cells are stably transfected with an LTR-lacZ cassette and upon successful infection by HIV-1 will express—galactosidase in a Tat-dependent manner, which can be detected in a chemiluminescence test. On the following day, aliquots of the fractions were added. Therefor the lyophilized fractions were resuspended in 80 μl of DMEM, and 25 μl each thereof was pipetted to P4-R5 cells, incubated at 37° C. for 1 hour and subsequently infected with HIV-1 NL4—3 (1 ng of p24 antigen). Virus stocks were obtained by transient infection of 293T cells with proviral DNA by the calcium phosphate method (CalPhos™ Mammalian Transfection Kit, Clontech). Virus stocks were harvested 48 hours post transfection, filtrated and used for infection. Three days post infection, β-galactosidase activity in infected P4-R5 cells was detected using GalScreen assay (TROPIX) as recommended by the manufacturer. Briefly, supernatant was removed, 40 μl of a 1:1 dilution of PBS/GalScreen+substrate was added, followed by incubation at room temperature for 30 min. Then 30 μl of the lysates were transferred into 96 well lumiplates. Subsequently, the lumines-cence was detected as relative light units per second in a luminometer (Berthold, ORION). From all measurements, the mean β-galactosidase background activity of non-infected control cells was subtracted. % infection values for each infection were calculated relative to no peptide containing controls (100%). The enzyme activities in measurements without ALB408-423 were set at 100%, and all other values were based thereon. The final purification (7th step) was examined under exactly the same conditions in TZM-bl cells (X. Wei et al., Antimicrob. Agents Chemother. 46: 1896, 2002).
1.6 mg of fraction 31 from the 7th step in Example 1 was dissolved in 160 μl of DMEM. Subsequently, 10 μl of serial dilutions of fraction 31 containing ALB408-423 were added to 60 μl of TZM-bl cells (60 μl) and infected with 1 ng of p24 antigen HIV-1 NL4—3 in a total volume of 100 μl. Three days later, infection rates were determined in a GalScreen assay (see Example 1).
(§1) 5000 TZM-bl cells were seeded in 100 μl of DMEM (10% FCS, 100 U/ml of penicillin G and 100 μg/ml of streptomycin sulfate). ALB408-423 was dissolved in PBS (10 mg/ml). One day later, 20 μl serial dilutions of ALB408-423 in PBS were added to cells and cells were subsequently infected with 0.5 ng of p24 antigen HIV-1 in a total volume of 200 μl. HIV-1 molecular clones differing in coreceptor tropism were used and generated as described (Papkalla et al., J. Virol. 76: 8455-9, 2002).
Table 1. Antiviral activity of various ALB fragments against X4 tropic HIV-1 NL4-3 infection. TZM-bl cells containing serial dilutions of synthetic peptides were infected with HIV-1 NL4-3 and infection rates were determined and calculated as described in example 1 and 2 at two days post infection. IC50 values were determined using the GraphPad Prism software package.
Various ALB408-423 derivatives containing N or C terminal deletions or amino acid substitutions (Table 1) were chemically synthesized and lyophilized peptides were dissolved in PBS. The antiviral activity was analyzed in TZM-bl cells using X4 tropic HIV-1 NL4-3 as described (example 4).

[2] = biological target: T1, CXCR4 (Homo sapiens, UniProt P61073); set-up: expressed in transfected cells; conditions: read-out: dissociation constant of fluorescent CXCL12 for the CXCR4 receptor; cited from earlier work
[3] = biological target: T1, CXCR4; test: Fluorescent binding assay on whole living cells, CXCL12-TR competition on HEK293 EGFP-hCXCR4; set-up: expressed in transfected cells
Protocol: FIG. 17. CXCR4 antagonistic activities of ALB derivatives. […] CXCR4 or CCR5 expressing HEK293 cells were treated with CXCR4 agonist CXCL12 (10 nM) or CCR5 agonist CCL5 (20 nM), respectively, in the absence (no ALB) or presence of indicated ALB derivatives (50 μM). Calcium responses were recorded as described. Data shown are mean values±standard deviation derived from duplicates relative to peak calcium responses after treatment with agonists only (100%). […] CXCR4 expressing HEK293 cells were treated with Texas Red labeled CXCL12 (CXCL12-Tr) in the presence or absence of ALB peptides. Real-time fluorescence monitoring of ligand-receptor interactions was carried out as described.

[4] = tested on: X4 tropic HIV-1 NL4-3; test: X4 tropic HIV-1 infection and replication in PBMC, p24 antigen ELISA; type: cell-based; conditions: 100 μM peptide, day 6 post infection
Protocol: To analyze the effect of ALB408-423 and derivatives thereof in relevant primary cells, peripheral blood mononuclear cells were isolated from Buffy coat derived from the DRK-Blutspendedienst Baden-Württemberg-Hessen using Ficoll density centrifugation. 1×10^6 PBMC per ml were stimulated with 1 μg/ml phytohemagglutinine (PHA, Oxoid, #3085280) and 10 ng/ml Interleukin 2 (IL-2, Strathmann, #9511192) for three days. Thereafter cells were pelleted and resuspended in IL-2 containing medium. 1.5×10^5 PBMC (250 μl) were seeded in 96 well dishes, peptides were added and cells were infected with […] p24 antigen of X4 tropic HIV-1 NL4-3. Supernatants containing progeny virus were taken at day 1, 3 and 6 post infection. Virus production was measured by p24 antigen ELISA (SAIC-Frederick, Inc [AIDS & Cancer virus program]). […] In the presence of 20 μM peptides virus replication was severely impaired.
FIG. 11. ALB408-423 and derivatives inhibit X4 tropic HIV-1 infection of peripheral blood mononuclear cells (PBMC). Cells were incubated with indicated concentrations of ALB408-423 or truncated variants and infected with X4 tropic HIV-1. Supernatants obtained after 6 days were analyzed by p24 ELISA. Shown are mean p24 antigen values (ng/ml) derived from triplicate infections±standard deviation.

[5] = tested on: X4 tropic HIV-1 variants NL4-3, P51-Sc, P59-S/27 and P34-S; conditions: TZM-bl cells, 100 μM peptide
Protocol: as §1
(§2) FIG. 3: Chemically synthesized ALB408-423 specifically blocks X4 tropic HIV-1 infection. TZM-bl cells containing indicated dilutions of peptide were infected with HIV-1 variants differing in their coreceptor tropism. 3 days later Gal Screen assay was used to measure infection rates. […] B) Infection rates in the presence of 500 μg/ml ALB408-423 showing that the peptide specifically blocks X4 but not R5 tropic HIV-1 infection. Data shown are mean values±standard deviation derived from triplicate infections relative to PBS containing cells (100% infection).
(§3) After 3 days, infection was detected using GalScreen assay (TROPIX) (example 1). […] In contrast, CCR5 tropic HIV-1 variants were not inhibited even in the presence of very high doses of ALB408-423 (500 μg/ml) (FIG. 3B). Due to the specific inhibition of the infection caused by X4-tropic HIV-1 variants, it is to be assumed that ALB408-423 interacts with the chemokine receptor CXCR4.
(§4) Virus stocks were first titrated on TZM-bl cells. Then TZM-bl cells containing 100 μM of peptides were infected with infectivity normalized amounts of X4, dualtropic (X4/R5) or R5 tropic HIV-1.
(§5) FIG. 10. ALB408-423 and truncated ALB derivatives specifically block X4 tropic HIV-1 infection. TZM-bl cells either containing PBS or 100 μM of indicated peptides were infected with normalized infectivities of X4, dualtropic or R5 tropic HIV-1 clones. Infection rates were measured 2 days post infection using the GalScreen assay. Shown are mean values (% of PBS treated control)±standard deviations derived from triplicate measurements.

[6] = tested on: dual tropic (CXCR4 and CCR5 using) variant 92ht593.1; test: Infection of TZM-bl cells by dual tropic HIV-1, GalScreen; type: cell-based; conditions: 100 μM peptide
Protocol: as §1, §2, §3, §4, §5

[7] = tested on: CCR5 tropic HIV-1 variants; test: Infection of TZM-bl cells by R5 tropic HIV-1 variants, GalScreen; type: cell-based; conditions: 100 μM peptide
Protocol: as §1, §2, §3, §4, §5

T1 sequence (P61073 whole entry): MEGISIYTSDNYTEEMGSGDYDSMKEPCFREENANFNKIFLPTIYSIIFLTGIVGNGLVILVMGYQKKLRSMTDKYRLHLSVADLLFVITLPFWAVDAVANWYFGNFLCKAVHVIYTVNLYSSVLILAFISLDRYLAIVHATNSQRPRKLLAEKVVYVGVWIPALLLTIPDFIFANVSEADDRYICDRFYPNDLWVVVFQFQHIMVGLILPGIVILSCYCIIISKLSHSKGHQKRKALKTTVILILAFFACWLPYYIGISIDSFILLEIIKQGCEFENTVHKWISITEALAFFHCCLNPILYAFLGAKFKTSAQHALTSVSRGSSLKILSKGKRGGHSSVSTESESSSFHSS

Row | Substance | antiviral activity against X4 tropic HIV-1 NL4-3 (words, SAR study) [1] | IC50 [1] [µM] | further results
1 | KKVPQVSTPTL [ALB413-423, KKVPQVSTPTL] | severely impaired or abrogated antiviral activity | > 100 | –
2 | AVRYTKKVPQVS [ALB408A-419, AVRYTKKVPQVS] | inactive peptides | – | –
3 | LARYTKKV [ALB-V409A, LARYTKKV] | – | 32.9 | –
4 | LVRYTKKVPQVSTPT [ALB408-422, LVRYTKKVPQVSTPT] | remained active | – | –
5 | YTKKVPQVSTPTL [ALB411-423, YTKKVPQVSTPTL] | severely impaired or abrogated antiviral activity | – | –
6 | LVRYTAKV [ALB-K413A, LVRYTAKV] | – | 56 | –
7 | GVRYTKKVPQVS [ALB408G-419, GVRYTKKVPQVS] | inactive peptides | – | –
8 | LVRYTKAV [ALB-K414A, LVRYTKAV] | – | 31 | –
9 | ALB408-416: SEQ ID No 15; C terminal truncation of ALB408-423, sequence not printed in Table 1 (LVRYTKKVP; listed as Homo sapiens) | remained active | – | –
10 | LVRATKKV [ALB-Y411A, LVRATKKV] | – | 91 | –
11 | LVRYTKKV [ALB408-415, LVRYTKKV] | remained active | 17.4 ± 6.5 | –
12 | VPQVSTPTL [ALB415-423, VPQVSTPTL] | severely impaired or abrogated antiviral activity | > 100 | –
13 | LVAYTKKV [ALB-R410A, LVAYTKKV] | – | > 1000 | –
14 | fluorescent CXCL12: synthesized human chemokine CXCL12 labeled with Texas Red, fluorescent CXCR4 ligand | – | – | Kd [2]: 0.055 ± 0.015 µM
15 | KVPQVSTPTL [ALB414-423, KVPQVSTPTL] | severely impaired or abrogated antiviral activity | – | –
16 | LVRYTK [ALB408-413, LVRYTK] | – | > 50 | Kd [3]: > 200 µM
17 | LVRYTKKA [ALB-V415A, LVRYTKKA] | – | 33 | –
18 | LVRYTKKVPQVSTP [ALB408-421, LVRYTKKVPQVSTP] | remained active | – | –
19 | LVRYTKKVPQ [ALB408-417, LVRYTKKVPQ] | remained active | 19.9 ± 4.1 | –
20 | LVRYTKK [ALB408-414, LVRYTKK] | remained active | – | –
21 | TKKVPQVSTPTL [ALB412-423, TKKVPQVSTPTL] | severely impaired or abrogated antiviral activity | > 100 | –
22 | FVRYTKKVPQVS [ALB408F-419, FVRYTKKVPQVS] | inactive peptides | – | –
23 | LVRYTKKVPQVST [ALB408-420, LVRYTKKVPQVST] | remained active | – | –
24 | LVRYTKKVPQVS [ALB408-419, LVRYTKKVPQVS] | remained active | 4.4 ± 1 | p24 antigen in supernatants [4]: only marginal p24 levels; block of infection by X4 tropic HIV-1 clones (NL4-3, P51-Sc, P34-s) [5]: almost completely; inhibition of dualtropic HIV-1 clone 92ht593.1 [6]: only moderately; effect on R5 tropic HIV-1 infection [7]: no effect
25 | LLVRYTKKVPQVS [ALB407-419, LLVRYTKKVPQVS] | reduced its antiviral activity | – | –
26 | LVRYAKKV [ALB-T412A, LVRYAKKV] | – | 11.2 ± 0.1 | block of infection by X4 tropic HIV-1 clones (NL4-3, P51-Sc, P34-s) [5]: almost completely; inhibition of dualtropic HIV-1 clone 92ht593.1 [6]: only moderately; effect on R5 tropic HIV-1 infection [7]: no effect
27 | RYTKKVPQVSTPTL [ALB410-423, RYTKKVPQVSTPTL] | severely impaired or abrogated antiviral activity | > 100 | –
28 | IVRYTKKVPQVS [ALB408I-419] | – | 1.55 ± 1.2 | p24 antigen in supernatants [4]: No p24 antigen could be detected; block of infection by X4 tropic HIV-1 clones (NL4-3, P51-Sc, P34-s) [5]: almost completely; inhibition of dualtropic HIV-1 clone 92ht593.1 [6]: only moderately; effect on R5 tropic HIV-1 infection [7]: no effect
29 | LVRYTKKVPQV [ALB408-418, LVRYTKKVPQV] | remained active | – | –
